In patent publication US11484539B2, “Compounds and their uses for alleviating menopause-associated symptoms” (Estetra SPRL, priority 2018, dated 2022):
Marks after values point to notes of the source that are not given here.

How the values were obtained:
post-menopausal women [1] = assay: Number of patients with biopsies (endometrial biopsy); format: in vivo
Method: If during the course of the trial, a double layer endometrial thickness ≥15 mm was detected on TVUS and/or abnormal uterine bleeding (in the judgement of the gynecologist in light of the oestrogen therapy) was reported by a non-hysterectomised person, they underwent an endometrial biopsy and was treated with progestin (10 mg dydrogesterone) QD until end of Week 11 in a sequential way (i.e., a 14 day progestin treatment period followed by a 14 day progestin treatment pause) in addition to the E4/placebo treatment. […] If an abnormal uterine bleeding occurred again after a first normal endometrial biopsy, a thorough gynaecological examination and a TVUS were performed. If necessary in the judgment of the gynecologist, a second endometrial biopsy was performed. After the E4/Placebo treatment period, all non-hysterectomised subjects (including those having received the progestin previously) received progestin therapy for 14 days with 10 mg dydrogesterone QD.
1. Number of patients with biopsies

post-menopausal women [2] = assay: Genito-urinary symptoms (GSM), VVA subject self-assessment; format: in vivo
Method: Change from baseline to week 12 in the following GSM symptoms (VVA subject self-assessment) were recorded: • a) Vaginal dryness (sensation of dryness or burning in the vagina; none=0 mild=1, moderate=2 or severe=3):
• b) Vaginal and/or vulvar irritation/itching (sensation of abnormal irritation or sensitive condition in the vagina; none=0, mild=1, moderate=2 or severe=3):
• c) Dysuria (sensation of pain or difficulty in urinating; none=0, mild=1, moderate=2 or severe=3):
• d) Vaginal pain associated with sexual activity (sensation of pain with sexual intercourse none=0, mild=1, moderate=2 or severe=3):
• e) Vaginal bleeding associated with sexual activity (loss of blood with sexual intercourse; presence=1 vs. absence=0): […]

Number of patients with biopsies (post-menopausal women [1]; 2.5 mg): 4
Number of patients with biopsies (post-menopausal women [1]; 5 mg): 5
Number of patients with biopsies (post-menopausal women [1]; 10 mg): 11
Number of patients with biopsies (post-menopausal women [1]; 15 mg): 9
Requirements for biopsies compared with the 10 mg per day group (post-menopausal women [1]; 15 mg per day group): less requirements for biopsies
Structure (SMILES): C[C@]12CC[C@@H]3c4ccc(O)cc4CC[C@H]3[C@@H]1[C@@H](O)[C@@H](O)[C@@H]2O [E4, 1,3,5 (10)-estratrien-3,15alpha,16alpha,17beta-tetrol]
Dysuria score (none=0, mild=1, moderate=2, severe=3), mean ± SD (post-menopausal women [2]; 2.5 mg, Baseline): 0.2 ± 0.56
Vaginal and/or vulvar irritation/itching score (none=0, mild=1, moderate=2, severe=3), mean ± SD (post-menopausal women [2]; 2.5 mg, Baseline): 0.7 ± 0.96
Vaginal bleeding associated with sexual activity, Absence (%) (post-menopausal women [2]; 2.5 mg, Baseline): 100%
Vaginal bleeding associated with sexual activity, Presence (%) (post-menopausal women [2]; 2.5 mg, Baseline): 0%
Vaginal dryness score (none=0, mild=1, moderate=2, severe=3), mean ± SD (post-menopausal women [2]; 2.5 mg, Baseline): 1 ± 0.90
Vaginal pain associated with sexual activity score (none=0, mild=1, moderate=2, severe=3), mean ± SD (post-menopausal women [2]; 2.5 mg, Baseline): 0.6 ± 0.77
Dysuria score (none=0, mild=1, moderate=2, severe=3), mean ± SD (post-menopausal women [2]; 2.5 mg, Week 12): 0 ± 0.19
Vaginal and/or vulvar irritation/itching score (none=0, mild=1, moderate=2, severe=3), mean ± SD (post-menopausal women [2]; 2.5 mg, Week 12): 0.3 ± 0.60
Vaginal bleeding associated with sexual activity, Absence (%) (post-menopausal women [2]; 2.5 mg, Week 12): 100%
Vaginal bleeding associated with sexual activity, Presence (%) (post-menopausal women [2]; 2.5 mg, Week 12): 0%
Vaginal dryness score (none=0, mild=1, moderate=2, severe=3), mean ± SD (post-menopausal women [2]; 2.5 mg, Week 12): 0.5 ± 0.77
Vaginal pain associated with sexual activity score (none=0, mild=1, moderate=2, severe=3), mean ± SD (post-menopausal women [2]; 2.5 mg, Week 12): 0.3 ± 0.73
Dysuria score (none=0, mild=1, moderate=2, severe=3), mean ± SD (post-menopausal women [2]; 5 mg, Baseline): 0.2 ± 0.56
Vaginal and/or vulvar irritation/itching score (none=0, mild=1, moderate=2, severe=3), mean ± SD (post-menopausal women [2]; 5 mg, Baseline): 0.6 ± 0.90
Vaginal bleeding associated with sexual activity, Presence (%) (post-menopausal women [2]; 5 mg, Baseline): 6.4%
Vaginal dryness score (none=0, mild=1, moderate=2, severe=3), mean ± SD (post-menopausal women [2]; 5 mg, Baseline): 1.3 ± 0.94
Vaginal pain associated with sexual activity score (none=0, mild=1, moderate=2, severe=3), mean ± SD (post-menopausal women [2]; 5 mg, Baseline): 1 ± 1.07
Vaginal bleeding associated with sexual activity, Absence (%) (post-menopausal women [2]; 5 mg, Baseline, some patients had no sexual activity): 91.5^# %
Dysuria score (none=0, mild=1, moderate=2, severe=3), mean ± SD (post-menopausal women [2]; 5 mg, Week 12): 0 ± 0.20
Vaginal and/or vulvar irritation/itching score (none=0, mild=1, moderate=2, severe=3), mean ± SD (post-menopausal women [2]; 5 mg, Week 12): 0.4 ± 0.65
Vaginal bleeding associated with sexual activity, Absence (%) (post-menopausal women [2]; 5 mg, Week 12): 100%
Vaginal bleeding associated with sexual activity, Presence (%) (post-menopausal women [2]; 5 mg, Week 12): 0%
Vaginal dryness score (none=0, mild=1, moderate=2, severe=3), mean ± SD (post-menopausal women [2]; 5 mg, Week 12): 0.7 ± 0.86
Vaginal pain associated with sexual activity score (none=0, mild=1, moderate=2, severe=3), mean ± SD (post-menopausal women [2]; 5 mg, Week 12): 0.5 ± 0.78
Dysuria score (none=0, mild=1, moderate=2, severe=3), mean ± SD (post-menopausal women [2]; 10 mg, Baseline): 0.2 ± 0.58
Vaginal and/or vulvar irritation/itching score (none=0, mild=1, moderate=2, severe=3), mean ± SD (post-menopausal women [2]; 10 mg, Baseline): 0.7 ± 0.87
Vaginal bleeding associated with sexual activity, Absence (%) (post-menopausal women [2]; 10 mg, Baseline): 100%
Vaginal bleeding associated with sexual activity, Presence (%) (post-menopausal women [2]; 10 mg, Baseline): 0%
Vaginal dryness score (none=0, mild=1, moderate=2, severe=3), mean ± SD (post-menopausal women [2]; 10 mg, Baseline): 1 ± 0.93
Vaginal pain associated with sexual activity score (none=0, mild=1, moderate=2, severe=3), mean ± SD (post-menopausal women [2]; 10 mg, Baseline): 0.6 ± 0.77
Dysuria score (none=0, mild=1, moderate=2, severe=3), mean ± SD (post-menopausal women [2]; 10 mg, Week 12): 0.1 ± 0.23
Vaginal and/or vulvar irritation/itching score (none=0, mild=1, moderate=2, severe=3), mean ± SD (post-menopausal women [2]; 10 mg, Week 12): 0.3 ± 0.64
Vaginal bleeding associated with sexual activity, Absence (%) (post-menopausal women [2]; 10 mg, Week 12): 100%
Vaginal bleeding associated with sexual activity, Presence (%) (post-menopausal women [2]; 10 mg, Week 12): 0%
Vaginal dryness score (none=0, mild=1, moderate=2, severe=3), mean ± SD (post-menopausal women [2]; 10 mg, Week 12): 0.5 ± 0.75
Vaginal pain associated with sexual activity score (none=0, mild=1, moderate=2, severe=3), mean ± SD (post-menopausal women [2]; 10 mg, Week 12): 0.2 ± 0.36
Dysuria score (none=0, mild=1, moderate=2, severe=3), mean ± SD (post-menopausal women [2]; 15 mg, Baseline): 0.3 ± 0.58
Vaginal and/or vulvar irritation/itching score (none=0, mild=1, moderate=2, severe=3), mean ± SD (post-menopausal women [2]; 15 mg, Baseline): 0.5 ± 0.85
Vaginal bleeding associated with sexual activity, Presence (%) (post-menopausal women [2]; 15 mg, Baseline): 0%
Vaginal dryness score (none=0, mild=1, moderate=2, severe=3), mean ± SD (post-menopausal women [2]; 15 mg, Baseline): 1.1 ± 1.04
Vaginal pain associated with sexual activity score (none=0, mild=1, moderate=2, severe=3), mean ± SD (post-menopausal women [2]; 15 mg, Baseline): 0.7 ± 0.90
Vaginal bleeding associated with sexual activity, Absence (%) (post-menopausal women [2]; 15 mg, Baseline, some patients had no sexual activity): 97.9^# %
Dysuria score (none=0, mild=1, moderate=2, severe=3), mean ± SD (post-menopausal women [2]; 15 mg, Week 12): 0.3 ± 0.61
Vaginal and/or vulvar irritation/itching score (none=0, mild=1, moderate=2, severe=3), mean ± SD (post-menopausal women [2]; 15 mg, Week 12): 0.4 ± 0.70
Vaginal bleeding associated with sexual activity, Absence (%) (post-menopausal women [2]; 15 mg, Week 12): 95.8%
Vaginal bleeding associated with sexual activity, Presence (%) (post-menopausal women [2]; 15 mg, Week 12): 4.2%
Vaginal dryness score (none=0, mild=1, moderate=2, severe=3), mean ± SD (post-menopausal women [2]; 15 mg, Week 12): 0.5 ± 0.68
Vaginal pain associated with sexual activity score (none=0, mild=1, moderate=2, severe=3), mean ± SD (post-menopausal women [2]; 15 mg, Week 12): 0.3 ± 0.54
